Assay results taken from patent publication US8067460B2 (The Regents of the University of Califonia, priority 2004, dated 2011).
Where two headings read alike, the source gives them in different places. No end group written: not given here.

Key:
[1] = target: BK (Homo sapiens, UniProt Q12791); experiment: Inhibitory effect on K+ channels (Appendix A): BK; assay type: cell-based
[2] = target: Kv1.5 (Homo sapiens, UniProt P22460); experiment: Inhibitory effect on K+ channels (Appendix A): Kv1.5; assay type: cell-based; settings: for nH (Kv1.5): Hill coefficient printed beside the Kv1.5 EC50
[3] = target: Kv1.7 (Homo sapiens, UniProt Q96RP8); experiment: Inhibitory effect on K+ channels (Appendix A): Kv1.7; assay type: cell-based
[4] = target: Kv1.1 (Homo sapiens, UniProt Q09470); experiment: Inhibitory effect on K+ channels (Appendix A): Kv1.1; assay type: cell-based
[5] = target: Kv1.4 (Homo sapiens, UniProt P22459); experiment: Inhibitory effect on K+ channels (Appendix A): Kv1.4; assay type: cell-based
[6] = target: Kv1.3 (Mus musculus, UniProt P16390); experiment: Inhibitory effect on K+ channels (Appendix A): Kv1.3; assay type: cell-based; settings: for nH (Kv1.3): Hill coefficient printed beside the Kv1.3 EC50; for selectivity for Kv1.3 channels over Kv1.5 channels: Kv1.3 versus Kv1.5, from Appendix A
[7] = target: IKCa1 (Homo sapiens, UniProt O15554); experiment: Inhibitory effect on K+ channels (Appendix A): IKCa1; assay type: cell-based
[8] = test system: delayed-type hypersensitivity (DTH) response; settings: mini-pigs, cited from earlier work
[9] = test system: class-switched (IgD−CD27+) memory B cells; settings: cited from earlier work

Chain of Kv1.3 (P16390 whole entry): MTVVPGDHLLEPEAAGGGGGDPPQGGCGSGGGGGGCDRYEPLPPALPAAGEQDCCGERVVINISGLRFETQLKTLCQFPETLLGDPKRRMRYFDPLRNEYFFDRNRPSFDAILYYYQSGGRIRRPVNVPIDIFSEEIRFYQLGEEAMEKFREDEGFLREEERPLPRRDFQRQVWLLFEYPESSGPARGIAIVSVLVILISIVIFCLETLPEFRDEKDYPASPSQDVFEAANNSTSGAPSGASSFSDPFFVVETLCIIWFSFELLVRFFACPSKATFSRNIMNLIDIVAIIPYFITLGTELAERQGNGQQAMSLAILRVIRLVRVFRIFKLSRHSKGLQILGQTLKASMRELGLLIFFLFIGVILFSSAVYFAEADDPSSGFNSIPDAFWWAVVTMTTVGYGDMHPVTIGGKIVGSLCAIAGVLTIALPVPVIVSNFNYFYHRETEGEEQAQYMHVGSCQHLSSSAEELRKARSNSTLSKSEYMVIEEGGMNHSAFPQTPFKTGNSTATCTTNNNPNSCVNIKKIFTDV
Chain of Kv1.1 (Q09470 whole entry): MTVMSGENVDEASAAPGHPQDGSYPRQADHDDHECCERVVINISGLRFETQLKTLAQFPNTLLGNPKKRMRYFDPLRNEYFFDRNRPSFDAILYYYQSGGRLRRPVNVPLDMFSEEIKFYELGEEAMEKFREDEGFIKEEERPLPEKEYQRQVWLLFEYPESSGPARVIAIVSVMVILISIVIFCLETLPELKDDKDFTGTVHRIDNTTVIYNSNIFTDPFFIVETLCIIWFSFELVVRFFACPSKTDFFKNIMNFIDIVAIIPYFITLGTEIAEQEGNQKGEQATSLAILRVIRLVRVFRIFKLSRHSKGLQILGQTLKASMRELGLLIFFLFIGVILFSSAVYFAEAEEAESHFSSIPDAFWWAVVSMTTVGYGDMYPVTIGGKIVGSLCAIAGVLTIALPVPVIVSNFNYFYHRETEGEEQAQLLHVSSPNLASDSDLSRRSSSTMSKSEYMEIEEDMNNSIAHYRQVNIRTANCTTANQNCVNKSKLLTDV
Chain of Kv1.5 (P22460 whole entry): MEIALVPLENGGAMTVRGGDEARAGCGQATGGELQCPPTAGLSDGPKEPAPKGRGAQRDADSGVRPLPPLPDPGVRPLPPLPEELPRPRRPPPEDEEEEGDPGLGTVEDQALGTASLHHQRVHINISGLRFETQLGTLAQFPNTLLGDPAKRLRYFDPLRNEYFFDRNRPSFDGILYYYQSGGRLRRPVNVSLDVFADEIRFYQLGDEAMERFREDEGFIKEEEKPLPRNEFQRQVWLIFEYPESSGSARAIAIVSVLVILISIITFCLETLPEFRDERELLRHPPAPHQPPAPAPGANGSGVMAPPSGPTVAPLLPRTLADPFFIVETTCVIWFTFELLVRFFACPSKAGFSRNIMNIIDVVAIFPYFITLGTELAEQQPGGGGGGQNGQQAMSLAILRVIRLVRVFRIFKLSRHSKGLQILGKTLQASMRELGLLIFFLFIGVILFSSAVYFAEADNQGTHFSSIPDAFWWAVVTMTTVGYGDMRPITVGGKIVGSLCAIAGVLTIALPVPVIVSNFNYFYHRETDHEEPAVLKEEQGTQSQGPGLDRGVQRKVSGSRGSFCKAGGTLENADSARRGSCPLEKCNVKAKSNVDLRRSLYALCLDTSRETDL
Chain of Kv1.4 (P22459 whole entry): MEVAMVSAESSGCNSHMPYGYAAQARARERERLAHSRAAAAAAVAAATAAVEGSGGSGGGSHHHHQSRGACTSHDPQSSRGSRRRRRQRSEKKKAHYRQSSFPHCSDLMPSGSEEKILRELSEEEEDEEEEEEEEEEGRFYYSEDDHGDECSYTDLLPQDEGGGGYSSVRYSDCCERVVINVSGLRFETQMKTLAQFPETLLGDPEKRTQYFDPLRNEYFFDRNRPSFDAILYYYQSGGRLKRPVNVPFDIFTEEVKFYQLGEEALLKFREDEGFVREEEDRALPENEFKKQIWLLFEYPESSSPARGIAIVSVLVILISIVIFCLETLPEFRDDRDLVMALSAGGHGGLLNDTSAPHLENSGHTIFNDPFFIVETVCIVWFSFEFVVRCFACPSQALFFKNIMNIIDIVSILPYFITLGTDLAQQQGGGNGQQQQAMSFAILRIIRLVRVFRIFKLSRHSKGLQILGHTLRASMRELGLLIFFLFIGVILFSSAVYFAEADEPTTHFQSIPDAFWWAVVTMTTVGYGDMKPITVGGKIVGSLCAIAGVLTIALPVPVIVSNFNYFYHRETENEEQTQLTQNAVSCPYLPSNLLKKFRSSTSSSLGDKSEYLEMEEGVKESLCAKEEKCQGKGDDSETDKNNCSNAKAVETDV
Chain of Kv1.7 (Q96RP8 whole entry): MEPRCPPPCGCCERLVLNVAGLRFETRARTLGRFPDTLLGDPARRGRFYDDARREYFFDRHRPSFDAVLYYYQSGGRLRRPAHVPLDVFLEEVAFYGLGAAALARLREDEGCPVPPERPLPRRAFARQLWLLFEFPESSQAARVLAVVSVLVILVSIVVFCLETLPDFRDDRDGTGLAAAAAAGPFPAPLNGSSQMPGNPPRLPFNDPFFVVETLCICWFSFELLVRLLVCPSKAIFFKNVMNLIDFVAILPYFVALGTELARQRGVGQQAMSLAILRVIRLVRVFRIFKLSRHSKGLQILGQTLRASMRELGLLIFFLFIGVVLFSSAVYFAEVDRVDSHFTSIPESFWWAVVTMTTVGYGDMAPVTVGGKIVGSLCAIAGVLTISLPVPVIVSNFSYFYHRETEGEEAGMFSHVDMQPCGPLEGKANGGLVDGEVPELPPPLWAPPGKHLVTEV
Chain of BK (Q12791 whole entry): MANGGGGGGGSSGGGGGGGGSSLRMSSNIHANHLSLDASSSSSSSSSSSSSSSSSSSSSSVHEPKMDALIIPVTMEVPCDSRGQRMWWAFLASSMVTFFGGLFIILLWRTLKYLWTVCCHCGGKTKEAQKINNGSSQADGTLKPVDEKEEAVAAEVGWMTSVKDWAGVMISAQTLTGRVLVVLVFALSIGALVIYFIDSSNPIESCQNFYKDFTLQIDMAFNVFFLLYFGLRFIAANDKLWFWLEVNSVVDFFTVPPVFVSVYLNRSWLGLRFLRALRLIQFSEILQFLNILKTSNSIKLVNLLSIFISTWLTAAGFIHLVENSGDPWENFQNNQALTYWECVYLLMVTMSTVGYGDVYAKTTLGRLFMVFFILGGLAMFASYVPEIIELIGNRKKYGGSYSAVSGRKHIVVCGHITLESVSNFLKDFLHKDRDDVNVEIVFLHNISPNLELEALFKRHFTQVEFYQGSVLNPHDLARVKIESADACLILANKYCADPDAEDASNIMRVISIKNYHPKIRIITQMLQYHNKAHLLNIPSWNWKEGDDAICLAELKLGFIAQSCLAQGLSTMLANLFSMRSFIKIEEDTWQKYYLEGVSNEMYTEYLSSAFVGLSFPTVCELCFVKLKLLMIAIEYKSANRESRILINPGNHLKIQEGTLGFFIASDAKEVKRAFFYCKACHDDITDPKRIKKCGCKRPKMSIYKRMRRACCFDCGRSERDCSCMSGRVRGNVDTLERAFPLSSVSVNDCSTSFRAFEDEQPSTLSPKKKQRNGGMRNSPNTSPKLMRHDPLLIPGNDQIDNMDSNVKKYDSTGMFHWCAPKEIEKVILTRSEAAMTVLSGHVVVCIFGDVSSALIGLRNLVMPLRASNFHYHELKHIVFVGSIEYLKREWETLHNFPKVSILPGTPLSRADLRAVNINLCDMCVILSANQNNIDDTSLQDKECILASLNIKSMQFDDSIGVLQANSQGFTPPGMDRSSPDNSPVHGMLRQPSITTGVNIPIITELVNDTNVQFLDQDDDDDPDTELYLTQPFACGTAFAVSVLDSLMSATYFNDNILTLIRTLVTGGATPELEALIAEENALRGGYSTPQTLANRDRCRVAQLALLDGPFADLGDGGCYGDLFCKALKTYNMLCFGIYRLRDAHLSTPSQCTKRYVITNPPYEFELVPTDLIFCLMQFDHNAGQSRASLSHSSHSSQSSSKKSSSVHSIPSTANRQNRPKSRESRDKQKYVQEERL

Compound | EC50 [2] [µM] | nH (Kv1.3) [6] | other results
O=c1ccc2c(OCCCCOc3ccccc3)c3ccoc3cc2o1 [PAP 1, 4-(4-Phenoxybutoxy)-7H-furo[3,2-g][1]benzopyran-7-on] | 0.045 ± 0.003 | 1.8 | EC50 [1]: 1.5 ± 0.7 µM; nH (Kv1.5) [2]: 2.3; EC50 [3]: 0.098 ± 0.005 µM; EC50 [4]: 0.065 ± 0.008 µM; EC50 [5]: 0.075 ± 0.005 µM; EC50 [7]: 10 ± 1 µM
O=c1ccc2c(OCCCCn3cccn3)c3ccoc3cc2o1 | – | – | EC50 ([2]; cells printed in μM): 5 µM
MgTX: Kv1.3 blocker MgTX (TIINVKCTSPKQCLPPCKAQFGQSAGAKCMNGKCKCYPH; ends and bridges not checked; cysteine pairing not given here; UniProt P40755 1-39, looked up) | – | – | suppression of the primary DTH response [8]: effectively suppress; suppression of the secondary DTH response [8]: much less effective
COc1cc(OC)cc(OCCCOc2c3ccoc3cc3oc(=O)ccc23)c1 [AS104, 4-[3-(3,5-Dimethoxyphenoxy)propoxy]-7H-furo[3,2-g][1]benzopyran-7-on] | – | 2.2 | –
4-[3-(4-Methylphenoxy)propoxy]-7H-furo[3,2-g][1]benzopyran-7-on [AS127] | – | 1.9 | nH (Kv1.5) [2]: 1.8; EC50 ([2]; cells unit inferred): 0.25 ± 0.01 µM; EC50 [6]: 0.025 ± 0.002 µM
O=c1ccc2c(OCCCCc3ccccc3)c3ccoc3cc2o1 [Psora-4] | – | – | inhibition of proliferation [9]: potently inhibited
O=c1ccc2c(OCCCCCOc3ccccc3)c3ccoc3cc2o1 | – | 2.1 | –
O=c1ccc2c(OCCCCSc3ncccn3)c3ccoc3cc2o1 | 0.159 ± 0.007 | – | –
C=C1C[C@@]2(O)[C@@H]3CC[C@@]4(C)[C@@H]5C=CC(=O)OC[C@]5(C(C)OC(C)=O)[C@@H](OC(C)=O)[C@@H](OC(C)=O)[C@@H]4[C@@]3(C)[C@H](OC(C)=O)[C@H](OC(C)=O)[C@@]2(C)C2(C(=O)OC)O[C@H]12 (some centres unmarked) [correolide] | – | – | suppression of the primary DTH response [8]: effectively suppress; suppression of the secondary DTH response [8]: much less effective
O=c1ccc2c(OCCCCOc3ccc([N+](=O)[O-])cc3)c3ccoc3cc2o1 [AS78, 4-(4-[4-Nitrophenoxy]butoxy)-7H-furo[3,2-g][1]benzopyran-7-on] | 0.105 ± 0.008 | 1.9 | selectivity for Kv1.3 channels over Kv1.5 channels [6]: selective for Kv1.3 channels over Kv1.5 channels
COc1cc([N+](=O)[O-])ccc1OCCCCOc1c2ccoc2cc2oc(=O)ccc12 | 0.476 ± 0.02 | – | –
O=c1ccc2c(OCCCCOc3ccc(Cl)cc3)c3ccoc3cc2o1 [AS84, 4-(4-[4-Chlorphenoxy]butoxy)-7H-furo[3,2-g][1]benzopyran-7-on] | 0.01 | 2.0 | –
O=c1ccc2c(OCCOCc3ccccc3)c3ccoc3cc2o1 | 0.11 ± 0.02 | – | EC50 [4]: 0.175 ± 0.02 µM
N#CCCCCOc1c2ccoc2cc2oc(=O)ccc12 | – | – | EC50 ([2]; cells printed in μM): 5 µM
4-[3-(4-Ethylphenoxy)propoxy]-7H-furo[3,2-g][1]benzopyran-7-on [AS123] | – | 1.7 | nH (Kv1.5) [2]: 2.0; EC50 ([2]; cells unit inferred): 0.068 ± 0.003 µM; EC50 [6]: 0.03 ± 0.002 µM
COc1cc(OC)cc(OCCCCOc2c3ccoc3cc3oc(=O)ccc23)c1 [AS69, 4-(4-[3,5-Dimethoxyphenoxy]butoxy)-7H-furo[3,2-g][1]benzopyran-7-on] | 0.15 ± 0.02 | – | –
CCc1ccc(OCCCCCOc2c3ccoc3cc3oc(=O)ccc23)cc1 | – | 2.1 | –
Cc1nnc(SCCCCOc2c3ccoc3cc3oc(=O)ccc23)s1 | – | – | EC50 ([2]; cells printed in μM): 1 µM
Cc1ccc(OCCCCOc2c3ccoc3cc3oc(=O)ccc23)c([N+](=O)[O-])c1 | 0.248 ± 0.02 | – | –
O=c1ccc2c(OCCCCOc3cccc(C(F)(F)F)c3)c3ccoc3cc2o1 | 0.25 | 2.0 | –

Compound | EC50 [2] [µM] | nH (Kv1.3) [6] | other results
O=c1ccc2c(OCCCCOCc3ccc(F)cc3)c3ccoc3cc2o1 | – | 2 | –
4-[3-(1-Naphthyloxy)propoxy]-7H-furo[3,2-g][1]benzopyran-7-on [AS135] | – | 2.1 | EC50 [6]: 0.018 ± 0.001 µM
COc1ccc2sc(SCCCCOc3c4ccoc4cc4oc(=O)ccc34)nc2c1 | 0.1 | – | –
O=c1ccc2c(OCCCCOc3ccc(F)cc3)c3ccoc3cc2o1 | 0.012 ± 0.001 | 2.3 | –
N#CCCCOc1c2occc2cc2ccc(=O)oc12 | – | – | EC50 ([2]; cells printed in μM): 10 µM
O=c1ccc2c(OCCCCOc3cccc4ccccc34)c3ccoc3cc2o1 [AS111] | 0.05 ± 0.005 | 2.0 | nH (Kv1.5) [2]: 2.0
4-[3-(3-Methoxyphenoxy)propoxy]-7H-furo[3,2-g][1]benzopyran-7-on [AS64] | – | 2.05 | EC50 [6]: 0.042 ± 0.003 µM
O=c1ccc2c(OCCCCOCc3ccccc3)c3ccoc3cc2o1 | 0.75 ± 0.04 | – | –
O=c1ccc2ccc(OCCCCOc3c4ccoc4cc4oc(=O)ccc34)cc2o1 | – | – | EC50 ([2]; cells printed in μM): 5 µM
O=c1ccc2c(OCCCCOc3ccc(Oc4ccccc4)cc3)c3ccoc3cc2o1 [AS85, 4-(4-[4-Phenoxyphenoxy]butoxy)-7H-furo[3,2-g][1]benzopyran-7-on] | 0.75 | – | selectivity for Kv1.3 channels over Kv1.5 channels [6]: selective for Kv1.3 channels over Kv1.5 channels
O=c1ccc2c(OCCCOc3ccccc3)c3ccoc3cc2o1 [PAP 3, 4-(3-Phenoxypropoxy)-7H-furo[3,2-g][1]benzopyran-7-on] | 0.1 ± 0.008 | – | EC50 [4]: 0.08 ± 0.01 µM; EC50 [5]: ~0.5 µM
O=c1ccc2c(OCCCOCc3ccccc3)c3ccoc3cc2o1 | 0.17 ± 0.02 | – | –
O=c1ccc2c(OCCCOc3ccc(Cl)cc3)c3ccoc3cc2o1 [AS132, 4-[3-(4-Chlorphenoxy)propoxy]-7H-furo[3,2-g][1]benzopyran-7-on] | – | – | nH (Kv1.5) [2]: 2.0; EC50 ([2]; cells unit inferred): 0.025 ± 0.002 µM; nH (Kv1.3) ([6]; listed as drawing 81): 2.0
O=c1ccc2c(OCCCCNc3ccncc3)c3ccoc3cc2o1 | – | – | EC50 ([2]; cells printed in μM): 5 µM
O=c1ccc2c(OCCCCOc3ccc4ccccc4c3)c3ccoc3cc2o1 [AS118] | 0.08 ± 0.01 | 2.1 | nH (Kv1.5) [2]: 2.0
COc1ccc(OCCCCOc2c3ccoc3cc3oc(=O)ccc23)cc1 [AS67, 4-(4-[4-Methoxyphenoxy]butoxy)-7H-furo[3,2-g][1]benzopyran-7-on] | 0.01 ± 0.001 | 2.1 | –
COc1cccc(OCCCCOc2c3ccoc3cc3oc(=O)ccc23)c1 [AS68, 4-(4-[3-Methoxyphenoxy]butoxy)-7H-furo[3,2-g][1]benzopyran-7-on] | 0.045 ± 0.005 | – | –
Cc1ccc(OCCCCOc2c3ccoc3cc3oc(=O)ccc23)cc1 [AS96, 4-(4-[4-Methylphenoxy]butoxy)-7H-furo[3,2-g][1]benzopyran-7-on] | 0.02 | 2.1 | –
N#CCCCOc1c2ccoc2cc2oc(=O)ccc12 | – | – | EC50 ([2]; cells printed in μM): 12 µM
N#CCCCCOc1c2occc2cc2ccc(=O)oc12 | – | – | EC50 ([2]; cells printed in μM): 10 µM
